Measured values published in patent publication US10421760B2, “Pyrrolo[2,3-d]pyrimidine compound or salt thereof” (TAIHO PHARMACEUTICAL CO., LTD., priority 2015, dated 2019).

How the values were obtained:
[1] = biological target: purified recombinant human JAK2 protein (Homo sapiens (Human), UniProt O60674); experiment: JAK2 kinase-inhibiting activity (mobility shift, LabChip EZ Reader II); assay type: biochemical; details: ATP 10 μM, 25° C., 80 minutes
Experimental: 2) Measurement of JAK2 Kinase-Inhibiting Activity
The activity of the compound of the present invention to inhibit the activity of JAK2 kinase was measured.
(§1) Among materials for the measurement of this inhibiting activity, a substrate peptide and a kinase protein were acquired as follows. As such a substrate peptide, FL-Peptide 22 (Perkin Elmer Corp.) was purchased. As such a kinase protein, a purified recombinant human JAK2 protein (Carna Biosciences, Inc.) was purchased.
(§2) The method for measuring the inhibiting activity is as follows. First, a serial dilution of the compound of the present invention was prepared by the same method as that described in the above section regarding JAK1. This serial dilution solution (the final concentration of DMSO upon a kinase reaction: 5.0%) or DMSO (final concentration: 5.0%) was mixed with a solution comprising the substrate peptide (final concentration: 1 μM), magnesium chloride (final concentration: 10 mM) and ATP (final concentration: 10 μM) in a buffer for kinase reaction (15 mM Tris (pH 7.5), 2 mM dithiothreitol and 0.01% Tween 20). Thereafter, a JAK2 protein was further added to the mixed solution, and the obtained mixture was then incubated at 25° C. for 80 minutes to carry out a kinase reaction. To the reaction solution, EDTA was added to a final concentration of 30 mM, so as to terminate the reaction. After termination of the reaction, the measurement and the data analysis were carried out by the same methods as those described in the above section regarding JAK1.

[2] = biological target: purified recombinant human JAK1 protein (Homo sapiens (Human), UniProt P23458); experiment: JAK1 kinase-inhibiting activity (mobility shift, LabChip EZ Reader II); assay type: biochemical; details: ATP 75 μM, 25° C., 120 minutes
Experimental: 1) Measurement of JAK1 Kinase-Inhibiting Activity
The activity of the compound of the present invention to inhibit the activity of JAK1 kinase was measured.
as §1, with “a substrate peptide for QSS Assist JAK1-MSA assay kit (Carna Biosciences, Inc.)” for “FL-Peptide 22 (Perkin Elmer Corp.)”, “JAK1” for “JAK2”
The method for measuring the inhibiting activity is as follows. First, the compounds of the present invention were each dissolved in dimethyl sulfoxide (DMSO), and a serial dilution was then prepared using DMSO. Subsequently, a serial dilution solution of the compound (the final concentration of DMSO upon a kinase reaction: 5.0%) or DMSO (final concentration: 5.0%) was mixed with a solution comprising the substrate peptide (final concentration: 1 μM), magnesium chloride (final concentration: 5 mM) and ATP (final concentration: 75 μM) in a buffer for kinase reaction (20 mM HEPES (pH 7.5), 2 mM dithiothreitol and 0.01% Triton X-100). Thereafter, a JAK1 protein was further added to the mixed solution, and the obtained mixture was then incubated at 25° C. for 120 minutes to carry out a kinase reaction. To the reaction solution, EDTA was added to a final concentration of 30 mM, so as to terminate the reaction. Finally, using LabChip EZ Reader II (Perkin Elmer Corp.), an unphosphorylated substrate peptide (S) and a phosphorylated peptide (P) were subjected to microchannel capillary electrophoresis, so that the two peptides were separated from each other and were then detected. The amount of a phosphorylation reaction was obtained based on the heights of the peaks of S and P, and the concentration of the compound capable of inhibiting 50% of the phosphorylation reaction was defined as an IC50 value (nM).

[3] = biological target: purified recombinant human JAK3 protein (Homo sapiens (Human), UniProt P52333); experiment: JAK3 kinase-inhibiting activity (mobility shift, LabChip EZ Reader II); assay type: biochemical; details: for IC50: ATP 5 μM, 25° C., 80 minutes
Experimental: 3) Measurement of JAK3 Kinase-Inhibiting Activity
The activity of the compound of the present invention to inhibit the activity of JAK3 kinase was measured.
as §1, with “a substrate peptide for QSS Assist JAK3-MSA assay kit (Carna Biosciences, Inc.)” for “FL-Peptide 22 (Perkin Elmer Corp.)”, “JAK3” for “JAK2”
as §2, with “5” for “10”, “(20” for “(15”, “HEPES” for “Tris”, “Triton X-100).” for “Tween 20).”, “JAK3” for “JAK2”

[4] = tested on: human PBMC; experiment: IL-2-dependent growth of human peripheral blood mononuclear cells (CellTiter-Glo); assay type: cell-based; details: 48 h, IL-2 2 ng/mL stimulation, 2 days
Experimental: The activity of the compound of the present invention to inhibit the IL-2-dependent growth reaction of human PBMC, which is caused by JAK3, was measured (Arthritis Rheum. 2010; 62(8): 2283-93).
Using a medium comprising 10 μg/mL PHA-M (Sigma) (which is RPMI-1640 (Sigma) comprising 10% human serum type AB (MP Biomedicals)), human PBMC (C.T.L.) (cell density: 1×10^6 cells/mL) was cultured at 37° C. in a culture vessel comprising 5% carbon dioxide for 3 days. Thereafter, the culture was washed with RPMI-1640 four times, and a medium (RPMI-1640 comprising 10% human serum type AB) was then added to the resultant culture to prepare a cell suspension. The cells (1×10^4 cells per well) and the serially diluted compound of the present invention were added to each well of a 96-well U-bottom microplate, and the thus obtained mixture was then cultured at 37° C. in a culture vessel comprising 5% carbon dioxide for 30 minutes. After completion of the culture, recombinant human IL-2 (Peprotech) was added to the culture to a final concentration of 2 ng/mL, and the obtained mixture was then stirred at 37° C. in a culture vessel comprising 5% carbon dioxide for 2 days (1×10^4 cells/100 μl/each well). After completion of the culture, the resultant was left at a room temperature for 30 minutes, and 100 μl of CellTiter-Glo Luminescent Cell Viability Assay (Promega) was then added to the resultant, followed by stirring it. Thereafter, the reaction mixture was left for 10 minutes, and the amount of a luminescence derived from living cells in each well was then measured using a microplate reader (TECAN). The inhibition rate of the present compound to the cell growth caused by IL-2 stimulation was calculated, and the concentration of the compound capable of inhibiting 50% of the cell growth was defined as an IC50 value (nM).

purified recombinant human JAK1 protein, sequence (P23458 whole entry): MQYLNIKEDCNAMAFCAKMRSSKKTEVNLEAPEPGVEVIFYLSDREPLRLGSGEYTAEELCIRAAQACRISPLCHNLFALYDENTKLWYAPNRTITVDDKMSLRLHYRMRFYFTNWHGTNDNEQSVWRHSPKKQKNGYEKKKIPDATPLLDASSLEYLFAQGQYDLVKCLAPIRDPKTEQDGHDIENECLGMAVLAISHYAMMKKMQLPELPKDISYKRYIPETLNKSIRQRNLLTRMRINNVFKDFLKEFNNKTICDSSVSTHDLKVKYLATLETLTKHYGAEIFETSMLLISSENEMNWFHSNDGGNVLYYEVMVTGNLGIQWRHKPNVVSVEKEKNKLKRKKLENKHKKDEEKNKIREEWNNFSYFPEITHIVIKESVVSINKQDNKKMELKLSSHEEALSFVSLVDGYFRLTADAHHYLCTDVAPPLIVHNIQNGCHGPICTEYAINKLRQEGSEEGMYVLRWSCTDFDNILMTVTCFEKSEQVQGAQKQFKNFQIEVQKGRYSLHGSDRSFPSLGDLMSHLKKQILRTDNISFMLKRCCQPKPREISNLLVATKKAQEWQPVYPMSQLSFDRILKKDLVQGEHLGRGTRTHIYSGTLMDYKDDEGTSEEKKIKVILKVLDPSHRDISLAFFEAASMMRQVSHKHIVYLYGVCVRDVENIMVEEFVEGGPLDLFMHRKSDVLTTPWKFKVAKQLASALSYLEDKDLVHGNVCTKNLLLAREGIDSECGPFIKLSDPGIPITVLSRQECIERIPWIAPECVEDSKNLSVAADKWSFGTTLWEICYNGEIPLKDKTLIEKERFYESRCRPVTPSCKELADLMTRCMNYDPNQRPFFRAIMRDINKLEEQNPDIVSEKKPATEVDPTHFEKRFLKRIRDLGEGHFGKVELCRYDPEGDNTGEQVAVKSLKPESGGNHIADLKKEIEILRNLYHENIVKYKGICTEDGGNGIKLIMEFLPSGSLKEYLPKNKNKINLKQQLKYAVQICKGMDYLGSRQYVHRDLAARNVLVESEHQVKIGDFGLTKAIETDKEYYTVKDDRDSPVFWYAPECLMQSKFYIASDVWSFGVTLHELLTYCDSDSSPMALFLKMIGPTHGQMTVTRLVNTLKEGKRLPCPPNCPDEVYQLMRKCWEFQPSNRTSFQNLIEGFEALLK
purified recombinant human JAK2 protein, sequence (O60674 whole entry): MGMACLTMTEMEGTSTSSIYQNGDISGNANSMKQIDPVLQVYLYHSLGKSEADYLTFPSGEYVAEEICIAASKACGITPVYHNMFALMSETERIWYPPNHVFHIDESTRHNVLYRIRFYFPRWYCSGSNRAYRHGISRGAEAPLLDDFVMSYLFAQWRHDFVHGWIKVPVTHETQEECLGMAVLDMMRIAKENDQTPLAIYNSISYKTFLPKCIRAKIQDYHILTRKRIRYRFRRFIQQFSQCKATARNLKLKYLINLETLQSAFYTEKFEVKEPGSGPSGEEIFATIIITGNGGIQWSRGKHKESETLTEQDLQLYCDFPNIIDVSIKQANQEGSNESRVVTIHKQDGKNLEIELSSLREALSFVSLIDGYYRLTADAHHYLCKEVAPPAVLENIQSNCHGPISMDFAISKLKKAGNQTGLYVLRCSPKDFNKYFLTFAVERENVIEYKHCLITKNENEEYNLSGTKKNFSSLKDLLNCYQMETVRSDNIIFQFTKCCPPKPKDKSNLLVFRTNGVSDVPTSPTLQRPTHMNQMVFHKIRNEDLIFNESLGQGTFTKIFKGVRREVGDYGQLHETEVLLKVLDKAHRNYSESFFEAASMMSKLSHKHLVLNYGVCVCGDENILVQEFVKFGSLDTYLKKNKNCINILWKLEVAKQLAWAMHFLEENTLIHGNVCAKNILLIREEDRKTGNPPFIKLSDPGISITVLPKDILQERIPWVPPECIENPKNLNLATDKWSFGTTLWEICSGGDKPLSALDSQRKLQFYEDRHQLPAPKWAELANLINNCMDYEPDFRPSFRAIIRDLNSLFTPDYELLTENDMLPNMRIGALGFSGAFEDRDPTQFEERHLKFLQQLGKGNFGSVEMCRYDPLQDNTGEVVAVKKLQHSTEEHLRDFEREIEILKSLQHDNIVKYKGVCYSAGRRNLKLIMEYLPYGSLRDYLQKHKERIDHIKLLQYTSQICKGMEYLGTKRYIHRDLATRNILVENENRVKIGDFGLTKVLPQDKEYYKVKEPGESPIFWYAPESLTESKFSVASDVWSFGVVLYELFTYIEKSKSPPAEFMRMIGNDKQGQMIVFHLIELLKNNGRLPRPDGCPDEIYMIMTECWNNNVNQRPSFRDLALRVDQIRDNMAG
purified recombinant human JAK3 protein, sequence (P52333 whole entry): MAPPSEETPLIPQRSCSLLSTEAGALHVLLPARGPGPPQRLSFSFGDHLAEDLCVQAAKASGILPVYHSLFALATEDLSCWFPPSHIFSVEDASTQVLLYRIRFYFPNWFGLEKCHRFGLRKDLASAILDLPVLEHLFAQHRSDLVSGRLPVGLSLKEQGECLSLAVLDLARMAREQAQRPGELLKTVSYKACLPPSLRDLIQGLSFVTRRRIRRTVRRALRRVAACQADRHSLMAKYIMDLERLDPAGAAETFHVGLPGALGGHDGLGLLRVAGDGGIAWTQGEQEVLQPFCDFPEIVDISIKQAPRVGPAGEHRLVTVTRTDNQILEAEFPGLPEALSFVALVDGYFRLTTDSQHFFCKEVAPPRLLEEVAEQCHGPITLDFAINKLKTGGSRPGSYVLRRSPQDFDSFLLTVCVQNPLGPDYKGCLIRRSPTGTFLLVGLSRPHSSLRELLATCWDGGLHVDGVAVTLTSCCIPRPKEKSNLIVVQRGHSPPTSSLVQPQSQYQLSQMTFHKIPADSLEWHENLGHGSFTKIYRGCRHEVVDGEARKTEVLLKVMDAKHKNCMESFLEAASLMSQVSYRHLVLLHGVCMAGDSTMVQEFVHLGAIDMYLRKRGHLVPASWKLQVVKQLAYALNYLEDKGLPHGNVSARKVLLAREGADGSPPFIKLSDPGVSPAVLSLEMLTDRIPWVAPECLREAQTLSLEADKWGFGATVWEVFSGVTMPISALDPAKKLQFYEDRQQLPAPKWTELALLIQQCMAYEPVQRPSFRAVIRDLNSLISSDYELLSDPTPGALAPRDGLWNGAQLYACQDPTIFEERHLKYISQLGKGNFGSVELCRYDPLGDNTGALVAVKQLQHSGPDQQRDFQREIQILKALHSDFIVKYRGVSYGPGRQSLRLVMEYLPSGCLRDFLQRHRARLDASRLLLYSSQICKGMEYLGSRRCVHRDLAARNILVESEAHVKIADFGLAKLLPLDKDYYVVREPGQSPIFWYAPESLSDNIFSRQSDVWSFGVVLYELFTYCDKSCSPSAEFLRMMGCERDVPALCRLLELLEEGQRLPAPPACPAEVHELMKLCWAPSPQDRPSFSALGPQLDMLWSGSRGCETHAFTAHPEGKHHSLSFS

IC50 [1] [nM]	IC50 [2] [nM]	IC50 [3] [nM]	JAK3-inhibiting activity attenuated in comparison to the compound of the present invention ([3]; in terms of IC50 value) [times]	selectivity to JAK3 versus JAK1 or JAK2 ([3]; in terms of IC50 value)	Structure (SMILES)	IC50 [4] [nM]
850	1500	< 0.3	–	–	C=CC(=O)NC1CCC=C(c2ncnc3[nH]cc(-c4ccsc4)c23)C1 (stereo not shown) [Compound 3, N-(3-(5-(Thiophen-3-yl)-7H-pyrrolo[2,3-d]pyrimidin-4-yl)cyclohex-3-en-1-yl)acrylamide]	–
330	440	< 0.3	–	–	C=CC(=O)N[C@H]1CCC=C(c2ncnc3[nH]cc(-c4ccco4)c23)C1 [Compound 7, (S)—N-(3-(5-(Furan-2-yl)-7H-pyrrolo[2,3-d]pyrimidin-4-yl)cyclohex-3-en-1-yl)acrylamide]	18
1000	4900	0.77	–	–	C=CC(=O)NC1C=C(c2ncnc3[nH]cc(-c4ccoc4)c23)CCC1 (stereo not shown) [Compound 16, N-(3-(5-(Furan-3-yl)-7H-pyrrolo[2,3-d]pyrimidin-4-yl)cyclohex-2-en-1-yl)acrylamide]	–
–	880	44	≥ 20	–	C=C(C)C(=O)NC1CCC=C(c2ncnc3[nH]cc(-c4ccccc4)c23)C1 (stereo not shown) [Comparative Example 1, N-(3-(5-Phenyl-7H-pyrrolo[2,3-d]pyrimidin-4-yl)cyclohex-3-en-1-yl)methacrylamide, reference compound]	–
–	–	–	–	–	C=CC(=O)NC1CCC=C(c2ncnc3[nH]cc(-c4cc5ccccc5o4)c23)C1 (stereo not shown) [Comparative Example 9, N-(3-(5-(Benzofuran-2-yl)-7H-pyrrolo[2,3-d]pyrimidin-4-yl)cyclohex-3-en-1-yl)acrylamide, reference compound]	> 1000
2440	> 10000	21	–	–	C=CC(=O)N[C@H]1CCC[C@@H](c2ncnc3[nH]cc(-c4ccco4)c23)C1 [Comparative Example 11(a), N-((1S,3R)-3-(5-(Furan-2-yl)-7H-pyrrolo[2,3-d]pyrimidin-4-yl)cyclohexyl)acrylamide, reference compound]	> 3000
870	3200	0.35	–	–	C=CC(=O)NC1C=C(c2ncnc3[nH]cc(-c4ccccc4)c23)CCC1 (stereo not shown) [Compound 12, N-(3-(5-Phenyl-7H-pyrrolo[2,3-d]pyrimidin-4-yl)cyclohex-2-en-1-yl)acrylamide]	–
430	1400	< 0.3	–	–	C=CC(=O)NC1CC=C(c2ncnc3[nH]cc(-c4ccco4)c23)C1 (stereo not shown) [Compound 8, N-(3-(5-(Furan-2-yl)-7H-pyrrolo[2,3-d]pyrimidin-4-yl)cyclopent-3-en-1-yl)acrylamide]	83
480	900	< 0.3	–	–	C=CC(=O)NC1CCC=C(c2ncnc3[nH]cc(-c4cccs4)c23)C1 (stereo not shown) [Compound 2, N-(3-(5-(Thiophen-2-yl)-7H-pyrrolo[2,3-d]pyrimidin-4-yl)cyclohex-3-en-1-yl)acrylamide]	110
660	–	0.68	–	–	C=CC(=O)NC1C=C(c2ncnc3[nH]cc(-c4ccccc4)c23)CC1 (stereo not shown) [Compound 10, N-(3-(5-Phenyl-7H-pyrrolo[2,3-d]pyrimidin-4-yl)cyclopent-2-en-1-yl)acrylamide]	–
–	–	–	–	–	C=CC(=O)NC1CCC=C(c2ncnc3[nH]cc(-c4ccc(C)cc4)c23)C1 (stereo not shown) [Comparative Example 4, N-(3-(5-(p-Tolyl)-7H-pyrrolo[2,3-d]pyrimidin-4-yl)cyclohex-3-en-1-yl)acrylamide, reference compound]	> 1000
470	880	< 0.3	–	–	C=CC(=O)NC1CCC=C(c2ncnc3[nH]cc(-c4ccccc4)c23)C1 (stereo not shown) [Compound 1, N-(3-(5-phenyl-7H-pyrrolo[2,3-d]pyrimidin-4-yl)cyclohex-3-en-1-yl)acrylamide]	–
166	414	125	≥ 100	not observed	C1=C(c2ncnc3[nH]ccc23)CCCC1 [Comparative Example 10, 4-(Cyclohex-1-en-1-yl)-7H-pyrrolo[2,3-d]pyrimidine, reference compound]	–
> 10000	–	21.4	≥ 20	–	C=CC(=O)NC1CCC=C(c2ncnc3[nH]cc(-c4ncccn4)c23)C1 (stereo not shown) [Comparative Example 8, N-(3-(5-(Pyrimidin-2-yl)-7H-pyrrolo[2,3-d]pyrimidin-4-yl)cyclohex-3-en-1-yl)acrylamide, reference compound]	–
–	730	27	≥ 20	–	C/C=C/C(=O)NC1CCC=C(c2ncnc3[nH]cc(-c4ccccc4)c23)C1 (stereo not shown) [Comparative Example 2, (E)-N-(3-(5-Phenyl-7H-pyrrolo[2,3-d]pyrimidin-4-yl)cyclohex-3-en-1-yl)but-2-enamide, reference compound]	–
1300	2900	0.42	–	–	C=CC(=O)NC1CCC=C(c2ncnc3[nH]cc(-c4ccoc4)c23)C1 (stereo not shown) [Compound 4, N-(3-(5-(Furan-3-yl)-7H-pyrrolo[2,3-d]pyrimidin-4-yl)cyclohex-3-en-1-yl)acrylamide]	–
450	2600	0.33	–	–	C=CC(=O)NC1C=C(c2ncnc3[nH]cc(-c4ccco4)c23)CCC1 (stereo not shown) [Compound 15, N-(3-(5-(Furan-2-yl)-7H-pyrrolo[2,3-d]pyrimidin-4-yl)cyclohex-2-en-1-yl)acrylamide]	–
